Data: US20230304010A1, “COMPOSITIONS AND METHODS FOR TREATING VIRAL INFECTIONS” (priority 2020, published 2023)
Ends that are not written are not given here.

Experiments:
[1] = tested on: ACE2 : SARS-CoV-2 Spike Alpha (B1.1.7/United Kingdom) variant; type: binding; conditions: read-out: IC50, Alpha (B117)
[2] = tested on: ACE2 : SARS-CoV-2 Spike Beta (B1.351/South Africa) variant; type: binding; conditions: read-out: IC50, Beta (B1312)
[3] = tested on: ACE2 : SARS-CoV-2 Spike Gamma (P1/Brazil) variant; type: binding
[4] = tested on: ACE2 : SARS-CoV-2 Spike Delta (B1 617 2/India) variant; type: binding; conditions: read-out: IC50, Delta (B1617)
[5] = tested on: ACE2 : SARS-CoV-2 Spike Epsilon (B1429) variant; type: binding
[6] = tested on: SARS-CoV-2 variants (Alpha/Beta/Delta); type: cell-based

Ac-KTFLDKFNHEAEDLFPGPKWSAFLKEQSTLAQMYG [Seq28]
IC50 [1]: 24.6 ± 11 nM
IC50 [2]: 31.5 ± 5 nM
IC50 [3]: 41.7 ± 11 nM
IC50 [4]: 29.2 ± 11 nM
IC50 [5]: 28.8 ± 7 nM
fold stronger anti-SARS-CoV-2 activity than Remdesivir [6]: 200 fold
